Test results as given in US10533228B2, “3.beta-hydroxysteroid dehydrogenase in steroid dependent disease” (THE CLEVELAND CLINIC FOUNDATION, priority 2013, dated 2020).

Legend:
3βHSD1(367N) = biological target: T1, 3βHSD1(367N) (Homo sapiens, UniProt P14060, T367N); assay: Enzyme kinetics of DHEA metabolism, recombinant enzyme in yeast microsomes; format: biochemical; details: Michaelis-Menten plot
T1 construct: made in house; host or cells: Saccharomyces cerevisiae W303B (microsomes)
T1 sequence (P14060 1-373 T367N): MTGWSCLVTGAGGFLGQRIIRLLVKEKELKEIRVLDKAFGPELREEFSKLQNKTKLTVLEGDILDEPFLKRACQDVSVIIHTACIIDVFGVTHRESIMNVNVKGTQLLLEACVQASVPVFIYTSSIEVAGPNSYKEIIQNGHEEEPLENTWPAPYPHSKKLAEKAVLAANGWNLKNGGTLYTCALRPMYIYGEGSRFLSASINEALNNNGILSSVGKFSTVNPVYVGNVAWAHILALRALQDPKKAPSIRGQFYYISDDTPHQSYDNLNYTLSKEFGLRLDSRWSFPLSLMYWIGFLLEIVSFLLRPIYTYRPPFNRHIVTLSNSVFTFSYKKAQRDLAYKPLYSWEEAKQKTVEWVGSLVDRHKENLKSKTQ
Protocol: (§1) Recombinant human 3βHSD1 was expressed in S cerevisciae strain W303B using yeast vector V10-3βHSD1 for wild-type and 367T proteins, and microsomes were prepared as described. Li et al., 2012. Incubations containing [^3H]-DHEA (0.5-40 μM, 100,000 cpm) and 25 μg microsomal protein in 0.25 ml of 50 mM potassium phosphate (pH 7.4) were pre-incubated at 37° C. for 1 min before initiating the reaction with NAD (0.1 mM). After 20 min at 37° C., the steroids were extracted with 1 ml dichloromethane, concentrated, and resolved on an Agilent 1260 HPLC equipped with a Kinetex 2.1×100 mm, 2.6 μm C18 reverse-phase column (Phenomenex, Torrance, Calif.) using methanol-water gradients at 0.4 ml/min. The column effluent was analyzed with a β-RAM4 (LabLogic) in-line scintillation counter and Bio-SafeII cocktail (Research Products International). Means of triplicate determinations were plotted as v versus [S], and kinetic constants Km and Vmax were obtained by fitting the data to the Michaelis-Menten equation using Origin version 7.5.

3βHSD1(367T) = biological target: T2, 3βHSD1(367T) (Homo sapiens, UniProt P14060); assay: as above; format: biochemical; details: Michaelis-Menten plot
T2 construct: made in house; host or cells: Saccharomyces cerevisiae W303B (microsomes)
T2 sequence (P14060 2-373): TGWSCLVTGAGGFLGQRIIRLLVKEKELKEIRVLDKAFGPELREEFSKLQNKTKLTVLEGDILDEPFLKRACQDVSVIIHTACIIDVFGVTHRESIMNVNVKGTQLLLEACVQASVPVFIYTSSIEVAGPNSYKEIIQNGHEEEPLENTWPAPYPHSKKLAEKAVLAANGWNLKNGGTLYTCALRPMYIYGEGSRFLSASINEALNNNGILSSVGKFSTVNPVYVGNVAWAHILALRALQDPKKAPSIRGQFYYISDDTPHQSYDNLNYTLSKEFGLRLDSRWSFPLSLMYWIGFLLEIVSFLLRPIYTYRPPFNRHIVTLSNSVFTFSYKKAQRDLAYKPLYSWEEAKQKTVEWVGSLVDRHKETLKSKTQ
Protocol: as §1

[1] = system: PSA and TMPRSS2 expression; assay: AR-regulated gene expression by qPCR in LNCaP; format: cell-based, human; details: qPCR normalized to RPLP0 and vehicle
Protocol: (§2) Gene expression. To accurately quantitate each gene transcript, qPCR was performed as previously described. Chang et al., 2011. Briefly, the iTaq SYBR Green Supermix with ROX kit (Bio-Rad, Hercules, Calif.) was applied for the thermocycling reaction in an ABI-7500 Real-Time PCR machine (Applied Biosystems, Foster City, Calif.). Total RNA (1 μg) collected by RNeasy kit (QIAGEN) was used in a RT reaction with the iScript cDNA synthesis kit (Bio-Rad). The qPCR analysis was carried out in triplicate with the following primer sets: HSD3B1 (Forward: 5′-[…]-3′ (SEQ ID NO: 11); Reverse: 5′-[…]-3′ (SEQ ID NO: 12)), PSA (Forward: 5′-[…]-3′ (SEQ ID NO: 13); Reverse: 5′-[…]-3′ (SEQ ID NO: 14)), TMPRSS2 (Forward: 5′-[…]-3′ (SEQ ID NO: 15); Reverse: 5′-[…]-3′ (SEQ ID NO: 16)), the housekeeping gene large ribosomal protein P0 (RPLP0) (Forward: 5′-CGAGGGCACCTGGAAAAC-3′ (SEQ ID NO: 17); Reverse: 5′-CACATTCCCCCGGATATGA-3′ (SEQ ID NO: 18)) and GAPDH (Forward: 5′-[…]-3′ (SEQ ID NO: 19); Reverse: 5′-[…]-3′ (SEQ ID NO: 20)). Each mRNA transcript was quantitated by normalizing the sample values to RPLP0 or GAPDH and to non-silencing control cells (for knockdown) or to vehicle treated cells (for steroid treated cells). All gene expression studies were repeated in independent experiments.

[2] = system: PSA and TMPRSS2 expression; assay: AR-regulated gene expression by qPCR in LAPC4; format: cell-based, human; details: LAPC4, qPCR normalized to RPLP0 and vehicle
Protocol: as §2

LAPC4 cells = assay: Steroid metabolism (flux from [3H]-DHEA to AD), HPLC; format: cell-based, human; details: LAPC4, 100 nM, after 48 hours
Protocol: (§3) Steroid metabolism experiments were performed 12 hours after seeding cells by treatment with 1 mL serum-free medium containing [^3H]-labeled DHEA (100 nM, 300,000-600,000 cpm; PerkinElmer). Aliquots of medium were collected for up to 48 hours, treated with β-glucuronidase (1000 units; Sigma-Aldrich) at 65° C. for 4 hours. Deconjugated steroids were extracted, evaporated under nitrogen stream, dissolved in 50% methanol, injected on a Breeze 1525 system equipped with model 717 plus autoinjector (Waters Corp.) and steroid metabolites were separated on a Luna 150×3 mm, […] C18 reverse-phase column (Phenomenex). The column effluent was mixed with Liquiscint scintillation cocktail (National Diagnostics) and analyzed by a β-RAM model 3 in-line radioactivity detector (IN/US Systems). Steroid metabolism experiments with transient enzyme expression were performed with pCMV5-HSD3B1 (367N and 367T) constructs 24 hours after transfection and 12 hours after treatment with 25 μM cycloheximide (CHX). […]
(§4) Cells (300,000-400,000 cells per well) were plated in 12-well plates coated with poly-L-ornithine. […] The column effluent was mixed with Liquiscint scintillation cocktail (National Diagnostics, Atlanta, Ga.) and analyzed by a β-RAM model 3 in-line radioactivity detector (LabLogic, Brandon, Fla.). […]

LNCaP cells = assay: as above; format: cell-based, human; details: 100 nM, after 48 hours
Protocol: as §3, §4

3βHSD = details: cited from earlier work

| SMILES | Km (3βHSD1(367N)) | Km (3βHSD1(367T)) | PSA and TMPRSS2 expression [1] | PSA and TMPRSS2 expression [2] | [3H]-DHEA metabolized by 3βHSD enzymatic activity to AD (LAPC4 cells) | [3H]-DHEA metabolized by 3βHSD enzymatic activity to AD (LNCaP cells) | inhibition of 3βHSD (3βHSD) |
| --- | --- | --- | --- | --- | --- | --- | --- |
| C[C@]12CC[C@H](O)CC1=CC[C@@H]1[C@@H]2CC[C@]2(C)C(=O)CC[C@@H]12 [DHEA, dehydroepiandrosterone] | 32 µM | 7 µM | induces PSA and TMPRSS2 expression in a concentration-dependent manner | absence of DHEA concentration-dependent increases in AR-regulated PSA and TMPRSS2 | approximately 10% | > 90% |  |
| CC(=O)O[C@H]1CC[C@@]2(C)C(=CC[C@@H]3[C@@H]2CC[C@]2(C)C(c4cccnc4)=CC[C@@H]32)C1 [abiraterone, abiraterone acetate] |  |  |  |  |  |  | weakly inhibits |
